Source: patent US20020103111A1, “Inhibitors of MAdCAM-1-mediated interactions and methods of use therefor” (Millennium Pharmaceuticals, Inc., priority 1996, published 2002)
Like-named read-outs stand apart in the source and are kept apart here.

Molecular target: T1, human MAdCAM-1 (huMAdCAM-1-Ig chimera); RPMI 8866 cells expressing α4β7 (Homo sapiens, UniProt P13612+P26010)
T1 construct: RPMI 8866 cells, a B cell lymphoma expressing α4β7; endogenous in cells; host or cells: RPMI 8866 cells (endogenous α4β7)
T1 sequence (P13612 34-1032, change not shown): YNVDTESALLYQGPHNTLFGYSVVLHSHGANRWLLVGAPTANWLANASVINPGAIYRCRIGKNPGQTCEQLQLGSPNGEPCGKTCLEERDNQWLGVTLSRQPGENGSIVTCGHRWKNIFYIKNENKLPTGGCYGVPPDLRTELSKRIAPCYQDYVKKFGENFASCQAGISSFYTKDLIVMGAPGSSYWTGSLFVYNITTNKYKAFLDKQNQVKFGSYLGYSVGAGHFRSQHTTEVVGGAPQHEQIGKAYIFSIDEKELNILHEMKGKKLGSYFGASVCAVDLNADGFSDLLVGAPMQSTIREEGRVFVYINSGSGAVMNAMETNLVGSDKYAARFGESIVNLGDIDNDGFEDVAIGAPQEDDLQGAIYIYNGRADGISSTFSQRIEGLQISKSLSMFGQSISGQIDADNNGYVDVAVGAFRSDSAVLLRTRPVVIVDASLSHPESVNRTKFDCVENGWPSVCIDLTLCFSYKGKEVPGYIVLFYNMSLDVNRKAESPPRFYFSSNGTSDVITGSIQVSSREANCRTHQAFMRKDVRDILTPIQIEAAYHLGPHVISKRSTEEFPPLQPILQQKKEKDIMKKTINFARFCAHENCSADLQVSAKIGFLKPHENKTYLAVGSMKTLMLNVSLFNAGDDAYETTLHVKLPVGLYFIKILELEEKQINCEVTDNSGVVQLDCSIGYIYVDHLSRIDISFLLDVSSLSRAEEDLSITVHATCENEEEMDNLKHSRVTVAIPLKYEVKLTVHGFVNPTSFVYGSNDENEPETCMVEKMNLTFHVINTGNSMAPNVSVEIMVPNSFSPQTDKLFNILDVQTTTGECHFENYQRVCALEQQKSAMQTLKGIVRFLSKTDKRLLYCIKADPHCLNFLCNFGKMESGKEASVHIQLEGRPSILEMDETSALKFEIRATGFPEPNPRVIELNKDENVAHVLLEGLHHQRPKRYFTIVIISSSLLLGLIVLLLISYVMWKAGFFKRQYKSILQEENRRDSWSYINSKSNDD
T1 sequence (P26010 20-798, change not shown): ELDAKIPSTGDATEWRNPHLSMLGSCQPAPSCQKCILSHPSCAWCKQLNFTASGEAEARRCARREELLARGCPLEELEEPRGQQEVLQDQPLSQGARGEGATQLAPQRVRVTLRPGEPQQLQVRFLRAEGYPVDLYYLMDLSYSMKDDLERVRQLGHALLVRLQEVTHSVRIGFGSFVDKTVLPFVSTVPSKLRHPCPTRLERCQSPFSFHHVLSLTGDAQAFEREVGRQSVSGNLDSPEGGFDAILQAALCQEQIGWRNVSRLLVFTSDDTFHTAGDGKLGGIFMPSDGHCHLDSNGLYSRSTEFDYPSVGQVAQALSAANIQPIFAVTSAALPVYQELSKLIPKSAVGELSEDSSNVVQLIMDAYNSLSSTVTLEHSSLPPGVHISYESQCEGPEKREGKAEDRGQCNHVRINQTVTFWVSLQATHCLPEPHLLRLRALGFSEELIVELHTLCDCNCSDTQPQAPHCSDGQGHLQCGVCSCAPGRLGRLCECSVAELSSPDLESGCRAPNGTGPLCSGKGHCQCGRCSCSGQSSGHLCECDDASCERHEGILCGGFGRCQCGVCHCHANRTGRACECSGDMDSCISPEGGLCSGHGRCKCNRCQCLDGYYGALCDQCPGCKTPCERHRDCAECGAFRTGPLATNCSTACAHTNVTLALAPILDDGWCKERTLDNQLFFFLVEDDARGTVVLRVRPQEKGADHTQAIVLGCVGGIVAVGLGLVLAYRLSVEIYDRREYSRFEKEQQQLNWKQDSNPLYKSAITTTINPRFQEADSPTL
Assay: huMAdCAM-1-Ig/RPMI 8866 Adhesion Assay
Type: cell-based
Description: RPMI 8866 cells, a B cell lymphoma expressing α4β7 (a gift from D. Erle; Erle, D. J. et al., J. Immunol., 153:517-528 (1994); Shyjan et al., Journal of Immunology, 1996:2851 (1996) were fluorescently labeled (labeling protocol provided below) using BCECF (Molecular probes #B-1170). Cells were resuspended in an assay buffer consisting of Hanks Balanced Salt Solution (HBSS) supplemented with fetal calf serum (FCS) at a final concentration of 2%, HEPES, pH 7.3 at 25 mM. All reagents in this buffer were supplied from Gibco/BRL.
All assays were performed in 96 well strip well plates from Costar (E.I.A./R.I.A. Strip plate-8 Cat. #2581). […] The plates were incubated at 37° C. for one hour (or at 4° C. overnight) and washed once in the automatic plate washer (50 mM Tris HCl, 0.14 M NaCl and 2.0 mM MnCl2 at pH 7.2) (Bio-Tek EL 404 microplate autowasher). Wells were then blocked with PBS (phosphate buffered saline) and 10% FCS (100 μl/well) for one hour at 37° C. followed by the same wash step as described.
Cells were labeled with BCECF-AM (Molecular Probes, Cat. No. B-1170) at a concentration of 2 μl/ml to a cell suspension of 4×10^6 cells/ml in PBS. The cells were incubated in a 37° C. water bath for 30 minutes. Labeled cells were centrifuged at 700 RPM for 10 minutes, resuspended in assay buffer and the centrifugation step was repeated. The cells were resuspended at a final concentration of 2.5×10^6 cells/ml.
For assays, compounds were diluted as follows in a 96 well polypropylene plate. First, a stock solution of each compound was prepared by dissolving compound in 100% DMSO at 100X final concentration to be tested. 10 μl of the stock was added to 90 μl water for the first test dilution. 50 μl of the first test dilution was added to 50 μl of 10% DMSO in water for the second test dilution. 50 μl of the second test dilution was added to 50 μl of 10% DMSO in water for the third test dilution. 50 μof the third test dilution was added to 50 μl of 10% DMSO in water for the fourth test dilution, and so on, until six test dilutions were prepared.
A stock solution of SmM positive control peptide (L783-1A) was made in 100% DMSO, and subsequently diluted in water 1:10 (10 μl of 5 mM stock plus 90 μl of water) to yield a concentration of 0.5mM. This dilution was then further diluted 1:2 with 10% DMSO (50 μl of the compound and 50 μl of 10% DMSO) for a concentration of 250 μM. These 1:2 dilutions were continued serially until six dilutions were achieved. These dilutions represent 10X stocks as shown in the assay set up below:
The assay was set up by adding materials to huMAdCAM-1-Ig-coated plates as follows:
1) 130 μl/well of assay buffer
2) 20 μl/well of diluted compounds or 10% DMSO (control) or diluted positive control peptide.
3) 50 μl of ECECF-AM-labeled RPMI 8866 cells
The plates were wrapped in foil and incubated for 30 minutes at room temperature on a rotary shaker at 45 RPM.
Plates were washed twice (50 mM Tris HCl, […] and 2.0 mM MnCl2 at pH 7.2) on the microplate autowasher plate washer set as follows:
Plates were read in an IDEX fluoresecent plate reader set to excite at 485 nm and read at 535 nm.
Data was collected in microsoft excel in a format for automatic IC 50 determinations.

[1] = Table 6, R1-Leu-Asp-Thr, read-out: hMAdCAM IC50
[2] = Table 7, R1-Leu-Asp-Thr-R2, read-out: hMAdCAM IC50

Row | IC50 [1] [nM] | SMILES | IC50 [2] [nM]
1 | 2600 | CC(C)C[C@H](NC(=O)c1sccc1Br)C(=O)N[C@@H](CC(=O)O)C(=O)N[C@H](C(N)=O)[C@@H](C)O [Table 6 example 6] | 
2 | 730 | CC(C)C[C@H](NC(=O)c1coc2ccccc2c1=O)C(=O)N[C@@H](CC(=O)O)C(=O)N[C@H](C(N)=O)[C@@H](C)O [Table 6 example 2] | 
3 |  | CC(C)C[C@H](NC(=O)c1cc2ccccc2cn1)C(=O)N[C@@H](CC(=O)O)C(=O)N[C@H](C(=O)NC1CCCCCCC1)[C@@H](C)O [Table 7 example 8] | 1300
4 | 2000 | CC(C)C[C@H](NC(=O)c1cccc(F)c1F)C(=O)N[C@@H](CC(=O)O)C(=O)N[C@H](C(N)=O)[C@@H](C)O [Table 6 example 8] | 
5 |  | CC(C)C[C@H](NC(=O)c1cc2ccccc2cn1)C(=O)N[C@@H](CC(=O)O)C(=O)N[C@H](C(=O)N[C@@H](C)c1cccc2ccccc12)[C@@H](C)O [Table 7 example 6] | 970
6 |  | CC(C)C[C@H](NC(=O)c1cc2ccccc2o1)C(=O)N[C@@H](CC(=O)O)C(=O)N[C@H](C(=O)NC1CCc2ccccc21)[C@@H](C)O (some centres unmarked) [Table 7 example 10] | 1500
7 | 2800 | CC(C)C[C@H](NC(=O)c1cccc(C(F)(F)F)c1)C(=O)N[C@@H](CC(=O)O)C(=O)N[C@H](C(N)=O)[C@@H](C)O [Table 6 example 7] | 
8 | 1100 | Cc1nc(Cl)ccc1C(=O)N[C@@H](CC(C)C)C(=O)N[C@@H](CC(=O)O)C(=O)N[C@H](C(N)=O)[C@@H](C)O [Table 6 example 9] | 
9 |  | CC(C)C[C@H](NC(=O)c1cc2ccccc2cn1)C(=O)N[C@@H](CC(=O)O)C(=O)N[C@H](C(=O)NCCC1=CCCCC1)[C@@H](C)O [Table 7 example 4] | 640
10 | 1100 | CC(C)C[C@H](NC(=O)c1ccc(C(C)(C)C)cc1)C(=O)N[C@@H](CC(=O)O)C(=O)N[C@H](C(N)=O)[C@@H](C)O [Table 6 example 4] | 
11 |  | CC(C)C[C@H](NC(=O)c1cc2ccccc2cn1)C(=O)N[C@@H](CC(=O)O)C(=O)N[C@H](C(=O)NC1CC1)[C@@H](C)O [Table 7 example 7] | 3800
12 |  | CC(C)C[C@H](NC(=O)c1cc2ccccc2cn1)C(=O)N[C@@H](CC(=O)O)C(=O)N[C@H](C(=O)N1CCc2ccccc2C1)[C@@H](C)O [Table 7 example 1] | 780
13 |  | CC(C)C[C@H](NC(=O)c1cc2ccccc2cn1)C(=O)N[C@@H](CC(=O)O)C(=O)N[C@H](C(=O)N1CCC(C)OC1C)[C@@H](C)O (some centres unmarked) [Table 7 example 3] | 970
14 |  | CC(C)C[C@H](NC(=O)c1cc2ccccc2cn1)C(=O)N[C@@H](CC(=O)O)C(=O)N[C@H](C(=O)NCCO)[C@@H](C)O [Table 7 example 9] | 1500
15 | 580 | CCCCCCOc1ccc(C(=O)N[C@@H](CC(C)C)C(=O)N[C@@H](CC(=O)O)C(=O)N[C@H](C(N)=O)[C@@H](C)O)cc1 [Table 6 example 1] | 
16 |  | Cc1cccc(CNC(=O)[C@@H](NC(=O)[C@H](CC(=O)O)NC(=O)[C@H](CC(C)C)NC(=O)c2cc3ccccc3cn2)[C@@H](C)O)c1 [Table 7 example 5] | 810

Row | SMILES | IC50 [1] [nM] | IC50 [2] [nM]
17 | CC(C)C[C@H](NC(=O)c1cccc(Cl)c1)C(=O)N[C@@H](CC(=O)O)C(=O)N[C@H](C(N)=O)[C@@H](C)O [Table 6 example 3] | 1400 | 
